Measured values taken from the supplement of paper PMC8633005.

What was measured:
Experiment in all cases: drug sensitivity score (DSS) (DSS (unitless, 0-50 scale)); higher = more sensitive (stronger viability inhibition); extreme values may be limits of the assay
Conditions in all cases: 72 h; culture: 2D
FM-MEL-2 = system: FM-MEL-2
Summary of the method: (§1)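 Patient-derived melanoma cultures and melanoma cell lines were grown in 2D in 384-well plates with a 527-compound oncology library at five concentrations spanning a 10,000-fold range, with 1000–1500 cells per well for the cultures. CellTiter-Glo luminescence gave viability after 72 h at 37 °C. The drug sensitivity score is a modified area-under-curve measure derived from dose-response curves fitted in the in-house Breeze software.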

WM852 = system: WM852
Summary of the method: as §1

SK-MEL-28 = system: SK-MEL-28
Summary of the method: as §1

FM-MEL-6 = system: FM-MEL-6
Summary of the method: as §1

Bowes = system: Bowes
Summary of the method: as §1

FM-MEL-3 = system: FM-MEL-3
Summary of the method: as §1

SK-MEL-2 = system: SK-MEL-2
Summary of the method: as §1

WM165 = system: WM165
Summary of the method: as §1

Structure (SMILES)	drug sensitivity score (FM-MEL-2)	drug sensitivity score (WM852)	drug sensitivity score (SK-MEL-28)	drug sensitivity score (FM-MEL-6)	drug sensitivity score (Bowes)	drug sensitivity score (FM-MEL-3)	drug sensitivity score (SK-MEL-2)	drug sensitivity score (WM165)
COc1cc([C@@H]2c3cc4c(cc3[C@@H](O[C@@H]3O[C@@H]5CO[C@@H](c6cccs6)O[C@H]5[C@H](O)[C@H]3O)[C@H]3COC(=O)[C@H]23)OCO4)cc(OC)c1O [Teniposide]	0	0	0	0	0	0	0	0
Cc1c(C(=O)Nc2ccc(N3C[C@@H](C)O[C@@H](C)C3)nc2)cccc1-c1ccc(OC(F)(F)F)cc1 [Sonidegib]	1.5	2.5	0	0.1	4.1	4.1	0	0.2
O=C(O)CC[C@H]1CC[C@@](c2cc(F)ccc2F)(S(=O)(=O)c2ccc(Cl)cc2)CC1 [MK-0752]	0	0	0	0	0	0	0	0
COc1cccc(-c2ccc(NC(=O)C3=C(C(=O)O)CCC3)c(F)c2)c1 [Vidofludimus]	0	0	0	0	0.4	0.3	0	1.3
CO[C@H]1C[C@@H]2CC[C@@H](C)[C@@](O)(O2)C(=O)C(=O)N2CCCC[C@H]2C(=O)O[C@H]([C@H](C)C[C@@H]2CC[C@@H](OC(=O)C(C)(CO)CO)[C@H](OC)C2)CC(=O)[C@H](C)/C=C(\C)[C@@H](O)[C@@H](OC)C(=O)[C@H](C)C[C@H](C)/C=C/C=C/C=C/1C [Temsirolimus]	4	0	2.5	4.4	0	0	0	6
COc1cc(CCc2cc(NC(=O)c3ccc(N4CC(C)NC(C)C4)cc3)n[nH]2)cc(OC)c1 (stereo not given) [AZD4547]	0	0	0	0	0	0	0	0
CCCCCCCCCCCCCCCCCCOP(=O)([O-])OC1CC[N+](C)(C)CC1 [Perifosine]	0.2	0	0	0	0	0.4	0	0
COC(=O)c1ccc2c(c1)[nH]c1ncnc(NCCCN3CCCCC3)c12 [UM729]	1	0	0.6	0	0	2.5	0	0
CC(C)c1cc(-c2n[nH]c(=O)n2-c2ccc3c(ccn3C)c2)c(O)cc1O [Ganetespib]	11.2	9.9	8.5	7	15.2	21	12.8	17.1
CN1C(=O)N[C@H](Cc2c[nH]c3c(Cl)cccc23)C1=O [Necrostatin 2]	0	0	0	0	0	0	0	0
O=c1[nH]cc(F)c(=O)[nH]1 [Fluorouracil]	1.7	0	0.7	0.7	0	0.4	0	2.3
Cc1ccc(Nc2nccc(N(C)c3ccc4c(C)n(C)nc4c3)n2)cc1S(N)(=O)=O [Pazopanib]	0	2.1	0	0.4	2.8	0	0	0
CO[C@H]1C[C@@H]2CC[C@@H](C)[C@@](O)(O2)C(=O)C(=O)N2CCCC[C@H]2C(=O)O[C@H]([C@H](C)C[C@@H]2CC[C@@H](OP(C)(C)=O)[C@H](OC)C2)CC(=O)[C@H](C)/C=C(\C)[C@@H](O)[C@@H](OC)C(=O)[C@H](C)C[C@H](C)/C=C/C=C/C=C/1C [Ridaforolimus]	0.9	0	3.8	2.7	0	0	0	7.6
COc1cc2c(Oc3ccc4[nH]c(C)cc4c3F)ncnc2cc1OCCCN1CCCC1 [Cediranib]	0	0	0	1.3	1.7	0	0	0
C[C@H]1Oc2cc(cnc2N)-c2c(nn(C)c2C#N)CN(C)C(=O)c2ccc(F)cc21	0.9	0	0	0.6	0.1	2.4	0	0.2
C[C@]1(c2nc3c(C(N)=O)cccc3[nH]2)CCCN1 [Veliparib]	0.7	0	0.2	0	0	0.6	0	0.9
CC/C(=C(\c1ccc(O)cc1)c1ccc(OCCN(C)C)cc1)c1ccccc1 [4-hydroxytamoxifen]	6.6	7.9	4.5	7.8	0	7.4	2.8	3.9
COc1cc2c(NC3CCN(C(C)C)CC3)nc(C3CCCCC3)nc2cc1OCCCN1CCCC1 [UNC0638]	6.9	5.9	5.8	2.8	6.6	4.4	5.9	5.8
CN(C)CCCOc1ccc(-c2ccc3ncc4c(c3c2)n(C2CCOCC2)c(=O)n4C)cn1 [AZD0156]	0.4	0	0	0	0	0	0	0.3
COc1cc(N2CCC(N3CCN(C)CC3)CC2)ccc1Nc1ncnc(Nc2ccccc2S(=O)(=O)C(C)C)n1 [ASP3026]	2.4	5.2	2	4.4	4.8	2.6	2.7	5.5

Structure (SMILES)	drug sensitivity score (FM-MEL-2)	drug sensitivity score (WM852)	drug sensitivity score (SK-MEL-28)	drug sensitivity score (FM-MEL-6)	drug sensitivity score (Bowes)	drug sensitivity score (FM-MEL-3)	drug sensitivity score (SK-MEL-2)	drug sensitivity score (WM165)
C1=N/C2=N/c3ccc(OCCN4CCCC4)c(c3)COC/C=C/COCc3cccc(c3)C(=C1)N2 [Pacritinib]	9.8	9.1	9.8	7.7	16.8	9.5	5.4	9.8
O=C(NC[C@H](O)CN1CCc2ccccc2C1)c1cc(NC2COC2)ncn1	0.4	0	0.3	0.5	4.7	1.4	0	0
CC[C@H](Nc1ncnc2[nH]cnc12)c1nc2cccc(F)c2c(=O)n1-c1ccccc1 [Idelalisib]	3.1	0.4	4.1	1.8	0.2	1	0	0.7
CCn1cc(-c2ccnc3[nH]c(-c4cccc(CN(C)C)c4)cc23)c(-c2ccc(NC(=O)N(C)C)cc2)n1	0	0	0.1	0	2.7	0	0	6
CCCCCCCCCCCCCCCCOP(=O)([O-])OCC[N+](C)(C)C [Miltefosine]	0.4	2	1.8	1.2	5.9	6	2.1	6.2
COC(=O)C[C@](O)(CCCC(C)(C)O)C(=O)O[C@@H]1C(OC)=C[C@]23CCCN2CCc2cc4c(cc2[C@H]13)OCO4 [Omacetaxine]	20.4	26.1	22.4	28.5	29.1	25.9	18.2	27.2
CN[C@@H]1C[C@H]2O[C@@](C)([C@@H]1OC)n1c3ccccc3c3c4c(c5c6ccccc6n2c5c31)C(=O)N[C@H]4O [UCN-01]	13.5	19.9	13.4	14.5	17.5	24.7	16.2	23.5
CCCCc1nc2cc(/C=C/C(=O)NO)ccc2n1CCN(CC)CC [Pracinostat]	14.5	9.1	12.9	14	9.2	13.3	14	16.8
COCC1(CO)C(=O)C2CCN1CC2 (stereo not given) [APR-246]	0	0	0	0	0	0	0	0
COc1cccc2c1C(=O)c1c(O)c3c(c(O)c1C2=O)C[C@@](O)(C(=O)CO)C[C@@H]3O[C@H]1C[C@H](N)[C@H](O)[C@H](C)O1 [Doxorubicin]	6.7	4.8	7.8	7.8	4.2	6.8	4.9	15.1
Nc1ccn([C@@H]2O[C@H](CO)[C@@H](O)[C@@H]2O)c(=O)n1 [Cytarabine]	1.9	0	12.1	7.2	0	9.3	2.4	15.7
CC[C@]1(O)C[C@@H]2CN(CCc3c([nH]c4ccccc34)[C@@](C(=O)OC)(c3cc4c(cc3OC)N(C)[C@H]3[C@@](O)(C(=O)OC)[C@H](OC(C)=O)[C@]5(CC)C=CCN6CC[C@]43[C@@H]65)C2)C1 [Vinblastine]	4.5	13.8	8.9	3.9	21.8	11.9	19.3	19.9
O=C(O)c1ccc(CN2CCC(CN[C@@H]3C[C@H]3c3ccccc3)CC2)cc1	0	0	0	0	0	0	0	0
CCNC(=O)CCC/C=C\C[C@@H]1[C@@H](/C=C/[C@@H](O)CCc2ccccc2)[C@H](O)C[C@@H]1O [Bimatoprost]	0	0	0	0	0	0	0	0
COC(=O)c1ccc2c(c1)NC(=O)/C2=C(\Nc1ccc(N(C)C(=O)CN2CCN(C)CC2)cc1)c1ccccc1 [Nintedanib]	1.5	5.3	2.1	5.6	6.5	1.8	0	0
COc1cc(Nc2ncc(F)c(Nc3ccc4c(n3)N(COP(=O)(O)O)C(=O)C(C)(C)O4)n2)cc(OC)c1OC [Fostamatinib]	4.6	0.5	2	1.9	2	2.1	0	3.5
CN(C)C(=O)c1cc2cnc(Nc3ccc(N4CCNCC4)cn3)nc2n1C1CCCC1 [Ribociclib]	4.3	0.7	5.4	1.6	0	2.3	0	2.8
COc1ccc2[nH]cc(/C=C3\C(=O)Nc4ccc(NC(=O)CCN5CCCCC5)cc43)c2c1	12.6	11.1	8.6	5	5.9	5.6	4.6	8.8
O=c1ncn2nc(Sc3ccc(F)cc3F)ccc2c1-c1c(Cl)cccc1Cl [Neflamapimod]	0.1	0.1	0.1	0.2	1.6	0.8	0	0.1
NC(=O)c1cccc(-c2cccc(OC(=O)NC3CCCCC3)c2)c1 [URB597]	0	0	0	0	0	0	0	0
